Like-named read-outs stand apart in the source and are kept apart here.
Molecular target: T1, Nanoluciferase-BRD9 fusion protein (3×FLAG-NLuc-BRD9) in SYO-1 cells (Homo sapiens, UniProt Q9H8M2)
T1 construct: expressed in transfected cells; host or cells: SYO-1
T1 sequence (Q9H8M2 1-597): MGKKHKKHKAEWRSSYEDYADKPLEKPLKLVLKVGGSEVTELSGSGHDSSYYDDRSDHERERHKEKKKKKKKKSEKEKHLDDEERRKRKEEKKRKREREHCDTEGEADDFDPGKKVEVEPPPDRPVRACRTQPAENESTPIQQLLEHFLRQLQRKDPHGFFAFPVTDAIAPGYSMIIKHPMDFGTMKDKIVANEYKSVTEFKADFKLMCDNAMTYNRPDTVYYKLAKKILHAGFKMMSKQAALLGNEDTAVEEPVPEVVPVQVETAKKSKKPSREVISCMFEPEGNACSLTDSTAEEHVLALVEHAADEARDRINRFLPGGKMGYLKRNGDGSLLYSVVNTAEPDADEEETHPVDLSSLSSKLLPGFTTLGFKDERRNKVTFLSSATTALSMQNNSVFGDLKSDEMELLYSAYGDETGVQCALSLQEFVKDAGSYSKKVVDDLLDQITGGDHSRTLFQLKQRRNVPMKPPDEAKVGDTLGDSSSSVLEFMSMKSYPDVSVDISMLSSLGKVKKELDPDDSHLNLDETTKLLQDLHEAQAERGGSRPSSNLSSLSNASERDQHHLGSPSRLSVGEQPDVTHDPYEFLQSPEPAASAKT
Test: SYO1 BRD9 NanoLuc degradation assay
Type: cell-based
Settings: SYO-1 cells expressing 3×FLAG-NLuc-BRD9, 6 hours incubation, 1 μM top dose, read-out: SYO1 BRD9-NanoLuc degradation IC50
Method: Procedure: A stable SYO-1 cell line expressing 3×FLAG-NLuc-BRD9 was generated. On day 0 cells were seeded in 30 μL media into each well of 384-well cell culture plates. The seeding density was 8000 cells/well. On day 1, cells were treated with 30 nL DMSO or 30 nL of 3-fold serially DMSO-diluted compounds (10 points in duplicates with 1 μM as final top dose). Subsequently plates were incubated for 6 hours in a standard tissue culture incubator and equilibrated at room temperature for 15 minutes. Nanoluciferase activity was measured by adding 15 μL of freshly prepared Nano-Glo Luciferase Assay Reagent (Promega N1130), shaking the plates for 10 minutes and reading the bioluminescence using an EnVision reader. • Results: The Inhibition % was calculated using the following formula: % Inhibition=100×(LumHC−LumSample)/(LumHC−LumLC). DMSO treated cells are employed as High Control (HC) and 1 μM of a known BRD9 degrader standard treated cells are employed as Low Control (LC).

Compound | DC50 (Table 6B) | DC50 (Table 6C)
COc1cc(-c2cn(C)c(=O)c3cc(NC4CCN(C(=O)CCCCOc5ccc6c(c5)C(=O)N(C5CCC(=O)NC5=O)C6=O)CC4)sc23)cc(OC)c1CN(C)C (centres unmarked) [Compound D71] | > 10 nM | 
COc1cc(-c2cn(C)c(=O)c3cc(C(=O)NC4CCN(CCN5CCN(c6ccc7c(c6)CN(C6CCC(=O)NC6=O)C7=O)CC5)CC4(F)F)sc23)cc(OC)c1CN(C)C (centres unmarked) [Compound D196] |  | < 10 nM
COc1cc(-c2cn(C)c(=O)c3cc(C(=O)NC4CCN(C5CCN(c6ccc7c(c6)CN(C6CCC(=O)NC6=O)C7=O)CC5)CC4(F)F)sc23)cc(OC)c1CN(C)C (centres unmarked) [Compound D25] | < 10 nM | 
COc1cc(-c2cn(C)c(=O)c3cnsc23)cc(OC)c1CN1CC(Oc2ccc3c(c2)C(=O)N(C2CCC(=O)NC2=O)C3)C1 (centres unmarked) [Compound D213] |  | < 10 nM
COc1cc(-c2cn(C)c(=O)c3sncc23)cc(OC)c1CN1CC(CN2CCC3(CC2)CN(c2ccc4c(c2)C(=O)N(C2CCC(=O)NC2=O)C4)C3)C1 (centres unmarked) [Compound D201] |  | < 10 nM
Cn1cc(-c2cccc(C(F)(F)F)c2)c2sc(C(=O)NC3CN(c4ccc5c(c4)C(=O)N(C4CCC(=O)NC4=O)C5)C3)cc2c1=O (centres unmarked) [Compound D103] |  | < 10 nM
COc1cc(-c2cn(C)c(=O)c3cc(C(=O)NC4CCC5(CCN(C(=O)CCN6CCN(c7ccc8c(c7)C(=O)N(C7CCC(=O)NC7=O)C8=O)CC6)C5)C4)sc23)cc(OC)c1CN(C)C (centres unmarked) [Compound D47] | > 10 nM | 
COc1cc(-c2cn(C)c(=O)c3ccsc23)cc(OC)c1C1CCN(c2ccc3c(c2)C(=O)N(C2CCC(=O)NC2=O)C3)CC1 (centres unmarked) [Compound D123] |  | < 10 nM
COc1cc(-c2cn(C)c(=O)c3cc(C(=O)NC4CCN(C)CC4(F)F)sc23)cc(OC)c1CN1CCN(c2ccc3c(c2)CN(C2CCC(=O)NC2=O)C3=O)CC1 (centres unmarked) [Compound D22] | < 10 nM | 
COc1cc(-c2cn(C)c(=O)c3cc(C(=O)NC4CCC5(CCN(CCN6CCN(c7ccc8c(c7)C(=O)N(C7CCC(=O)NC7=O)C8=O)CC6)C5)C4)sc23)cc(OC)c1CN(C)C (centres unmarked) [Compound D39] | < 10 nM | 
COc1cc(-c2cn(C)c(=O)c3cc(C(=O)NC4CCN(CCCCCOc5cccc6c5C(=O)N(C5CCC(=O)NC5=O)C6=O)CC4(F)F)sc23)cc(OC)c1CN(C)C (centres unmarked) [Compound D16] | < 10 nM | 
COc1cc(-c2cn(C)c(=O)c3ccsc23)cc(OC)c1CN1CCC2(CN(c3ccc4c(c3)C(=O)N(C3CCC(=O)NC3=O)C4)C2)C(F)(F)C1 (centres unmarked) [Compound D111] |  | < 10 nM
COc1cc(-c2cn(C)c(=O)c3ccsc23)cc(OC)c1CN1CC(Oc2ccc3c(c2)CN(C2CCC(=O)NC2=O)C3=O)C1 (centres unmarked) [Compound D170] |  | < 10 nM
COc1cc(-c2cn(C)c(=O)c3ccsc23)cc(OC)c1CN1[C@H](C)CN(c2ccc3c(c2)CN(C2CCC(=O)NC2=O)C3=O)C[C@H]1C (some centres unmarked) [Compound D136] |  | < 10 nM
COc1cc(OC)cc(-c2cn(C)c(=O)c3cc(C(=O)NC4CCN(c5ccc6c(c5)C(=O)N(C5CCC(=O)NC5=O)C6)CC4)oc23)c1 (centres unmarked) [Compound D219] |  | < 10 nM
COc1cc(-c2cn(C)c(=O)c3scnc23)cc(OC)c1CN1CC(CN2CCC3(CC2)CN(c2ccc4c(c2)C(=O)N(C2CCC(=O)NC2=O)C4)C3)C1 (centres unmarked) [Compound D20] | < 10 nM | 
COc1cc(-c2cn(C)c(=O)c3cc(C(=O)N[C@H]4CCN(CCN5CCN(c6ccc7c(c6)C(=O)N(C6CCC(=O)NC6=O)C7)CC5)CC4(F)F)sc23)cc(OC)c1CN(C)C (some centres unmarked) [Compound D112] |  | < 10 nM
COc1cc(-c2c(C)n(C)c(=O)c3ccsc23)cc(OC)c1CN1CCC2(CC1)CN(c1ccc3c(c1)C(=O)N(C1CCC(=O)NC1=O)C3)C2 (centres unmarked) [Compound D158] |  | < 10 nM
COc1cc(-c2cn(C)c(=O)c3cc(C(=O)N[C@@H]4CCN(c5ccc6c(c5)C(=O)N(C5CCC(=O)NC5=O)C6)CC4(F)F)sc23)cc(OC)c1CN(C)C (some centres unmarked) [Compound D156] |  | < 10 nM
COc1cc2c(=O)n(C)cc(-c3cc(OC)c(CN4CCC(CN5CCC6(CC5)CN(c5ccc7c(c5)C(=O)N(C5CCC(=O)NC5=O)C7)C6)CC4)c(OC)c3)c2s1 (centres unmarked) [Compound D100] |  | < 10 nM
COc1cc(-c2cn(C)c(=O)c3cc(C(=O)NC4CCN(CCN5CCC6(CC5)CN(c5ccc7c(c5)CN(C5CCC(=O)NC5=O)C7=O)C6)CC4(F)F)sc23)cc(OC)c1CN(C)C (centres unmarked) [Compound D19] | < 10 nM | 

Compound | DC50 (Table 6B) | DC50 (Table 6C)
COc1cc(-c2cn(C)c(=O)c3cc(C(=O)NC4CCN(C(C)=O)CC4)sc23)cc(OC)c1CN1CCC(CCN2CCN(c3ccc4c(c3)C(=O)N(C3CCC(=O)NC3=O)C4=O)CC2)CC1 (centres unmarked) [Compound D27] | < 10 nM | 
COc1cc(-c2cn(C)c(=O)c3cc(C(=O)NCC4CC5(CCN(CCCN6CCN(c7ccc8c(c7)C(=O)N(C7CCC(=O)NC7=O)C8=O)CC6)CC5)C4)sc23)cc(OC)c1CN(C)C (centres unmarked) [Compound D33] | < 10 nM | 
COc1cc(-c2cn(C)c(=O)c3cc(C(=O)NC4CC5CC4CN5CCN4CCN(c5ccc6c(c5)C(=O)N(C5CCC(=O)NC5=O)C6=O)CC4)sc23)cc(OC)c1CN(C)C (centres unmarked) [Compound D70] | < 10 nM | 
COc1cc(-c2cn(C)c(=O)c3ccsc23)cc(OC)c1CN1CCC(CN2CCC3(CC2)CN(c2ccc4c(c2)C(=O)N(C2CCC(=O)NC2=O)C4=O)C3)CC1 (centres unmarked) [Compound D185] |  | < 10 nM
COc1cc(-c2cn(C)c(=O)c3cc(C(=O)NCC4CC5(CCN(CCN6CCN(c7ccc8c(c7)C(=O)N(C7CCC(=O)NC7=O)C8=O)CC6)CC5)O4)sc23)cc(OC)c1CN(C)C (centres unmarked) [Compound D62] | > 10 nM | 
COc1cc(-c2cn(C)c(=O)c3cc(C(=O)NC4CCN(CCCCCOc5ccc6c(c5)C(=O)N(C5CCC(=O)NC5=O)C6=O)CC4)sc23)cc(OC)c1CN(C)C (centres unmarked) [Compound D89] | < 10 nM | 
CNC(=O)c1cc2c(=O)n(C)cc(-c3cc(OC)c(CN4CCC5(CC4)CN(c4ccc6c(c4)C(=O)N(C4CCC(=O)NC4=O)C6)C5)c(OC)c3)c2s1 (centres unmarked) [Compound D138] |  | < 10 nM
Cn1cc(-c2cccc(C(F)(F)F)c2)c2sc(C(=O)NC3CCN(c4ccc5c(c4)C(=O)N(C4CCC(=O)NC4=O)C5)CC3)cc2c1=O (centres unmarked) [Compound D128] |  | < 10 nM
Cn1cc(-c2cccc(C(F)(F)F)c2)c2sc(C(=N)NC3CCS(=O)(=O)N(CC(=O)NCCCCCCCCNc4cccc5c4C(=O)N(C4CCC(=O)NC4=O)C5=O)C3)cc2c1=O (centres unmarked) [Compound D31] | > 10 nM | 
COc1cc(-c2cn(C)c(=O)c3cc(C(=O)NC4CCN(CCCCCOc5ccc6c(c5)C(=O)N(C5CCC(=O)NC5=O)C6)CC4(F)F)sc23)cc(OC)c1CN(C)C (centres unmarked) [Compound D159] |  | < 10 nM
COc1cc2c(=O)n(C)cc(-c3cc(OC)c(CN4CCC5(CC4)CN(c4ccc6c(c4)C(=O)N(C4CCC(=O)NC4=O)C6)C5)c(OC)c3)c2s1 (centres unmarked) [Compound D120] |  | < 10 nM
COc1cc(-c2cn(C)c(=O)c3cc(C(=O)NC4CCN(CCN5CCC6(CC5)CN(c5ccc7c(c5)C(=O)N(C5CCC(=O)NC5=O)C7)C6)CC4(F)F)sc23)cc(OC)c1CN(C)C (centres unmarked) [Compound D175] |  | < 10 nM
COc1cc(-c2cn(C)c(=O)c3cc(C(=O)NC4CCN(C5CCN(c6ccc7c(c6)C(=O)N(C6CCC(=O)NC6=O)C7)CC5(F)F)CC4)sc23)cc(OC)c1CN(C)C (centres unmarked) [Compound D126] |  | < 10 nM
COc1cc(-c2cn(C)c(=O)c3cc(C(=O)NC4CN(c5ccc6c(c5)C(=O)N(C5CCC(=O)NC5=O)C6=O)CC4(F)F)sc23)cc(OC)c1CN(C)C (centres unmarked) [Compound D190] |  | < 10 nM
COc1cc(-c2cn(C)c(=O)c3cc(C(=O)N[C@H]4CCN(C5CCN(c6ccc7c(c6)C(=O)N([C@H]6CCC(=O)NC6=O)C7)CC5)CC4(F)F)sc23)cc(OC)c1CN(C)C [Compound D141] |  | < 10 nM
COc1cc(-c2cn(C)c(=O)c3cc(C(=O)NCC4CC5(C4)CN(C(=O)CCN4CCN(c6ccc7c(c6)C(=O)N(C6CCC(=O)NC6=O)C7=O)CC4)C5)sc23)cc(OC)c1CN(C)C (centres unmarked) [Compound D51] | > 10 nM | 
COc1cc(-c2cn(C)c(=O)c3cc(C(=O)NC4CCN(CCCCCOc5ccc6c(c5)CN(C5CCC(=O)NC5=O)C6=O)CC4(F)F)sc23)cc(OC)c1CN(C)C (centres unmarked) [Compound D163] |  | < 10 nM
COc1cc(-c2cn(C)c(=O)c3ccsc23)cc(OC)c1CN1CCN(c2ccc3c(c2)C(=O)N(C2CCC(=O)NC2=O)C3)CC1 (centres unmarked) [Compound D194] |  | < 10 nM
COc1cc(-c2cn(C)c(=O)c3nc(C)sc23)cc(OC)c1CN1CCC2(CC1)CN(c1ccc3c(c1)C(=O)N(C1CCC(=O)NC1=O)C3)C2 (centres unmarked) [Compound D214] |  | < 10 nM
COc1cc(-c2cn(C)c(=O)c3cc(C(=O)N[C@@H]4CCN(CCN5CCN(c6ccc7c(c6)C(=O)N(C6CCC(=O)NC6=O)C7)CC5)CC4(F)F)sc23)cc(OC)c1CN(C)C (some centres unmarked) [Compound D166] |  | < 10 nM
